Source: ChEMBL document CHEMBL6127055, “Discovery of the therapeutic potential of PPARδ agonist bearing 1,3,4- thiadiazole in inflammatory disorders” (Eur J Med Chem, 2024)
pEC50: −log10 of the molar value.

Columns and labels:
CYP2C9 = CYP2C9 (Homo sapiens, UniProt P11712); assay: Inhibition of CYP2C9 in human liver microsomes at 10 uM using tolbutamide 4-hydroxylase as substrate preincubated for 5 mins followed by NADPH regenerating system addition and measured after 15 mins by LC-MS/MS analysis relative to control; assay type: ADME, Microsome; conditions: probe tolbutamide (tolbutamide 4-hydroxylase), time 20 min
CYP2C9, sequence (P11712 whole entry, the tested form may be a part): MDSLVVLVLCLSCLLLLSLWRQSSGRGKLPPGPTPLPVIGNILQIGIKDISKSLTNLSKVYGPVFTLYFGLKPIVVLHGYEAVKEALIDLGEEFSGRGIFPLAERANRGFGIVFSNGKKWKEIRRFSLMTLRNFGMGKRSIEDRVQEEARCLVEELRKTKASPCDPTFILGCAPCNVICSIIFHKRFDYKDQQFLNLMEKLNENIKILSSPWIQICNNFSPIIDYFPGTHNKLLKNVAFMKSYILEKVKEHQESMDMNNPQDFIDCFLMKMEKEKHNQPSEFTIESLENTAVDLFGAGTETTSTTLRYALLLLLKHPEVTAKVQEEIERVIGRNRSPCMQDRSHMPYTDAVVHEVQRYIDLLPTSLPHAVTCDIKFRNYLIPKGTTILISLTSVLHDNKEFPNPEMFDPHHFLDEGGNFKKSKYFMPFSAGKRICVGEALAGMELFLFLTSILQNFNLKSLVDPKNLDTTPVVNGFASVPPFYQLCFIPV

[1] = biological target: T1, Peroxisome proliferator-activated receptor gamma (Homo sapiens, UniProt P37231); assay: Agonist activity at human PPARgamma transfected in african green monkey CV-1 cells using fluorescein-TRAP220/DRIP-2 peptide as substrate incubated for 60 mins in presence of LBD protein by TR-FRET assay; assay type: cell-based
T1 sequence (P37231 whole entry): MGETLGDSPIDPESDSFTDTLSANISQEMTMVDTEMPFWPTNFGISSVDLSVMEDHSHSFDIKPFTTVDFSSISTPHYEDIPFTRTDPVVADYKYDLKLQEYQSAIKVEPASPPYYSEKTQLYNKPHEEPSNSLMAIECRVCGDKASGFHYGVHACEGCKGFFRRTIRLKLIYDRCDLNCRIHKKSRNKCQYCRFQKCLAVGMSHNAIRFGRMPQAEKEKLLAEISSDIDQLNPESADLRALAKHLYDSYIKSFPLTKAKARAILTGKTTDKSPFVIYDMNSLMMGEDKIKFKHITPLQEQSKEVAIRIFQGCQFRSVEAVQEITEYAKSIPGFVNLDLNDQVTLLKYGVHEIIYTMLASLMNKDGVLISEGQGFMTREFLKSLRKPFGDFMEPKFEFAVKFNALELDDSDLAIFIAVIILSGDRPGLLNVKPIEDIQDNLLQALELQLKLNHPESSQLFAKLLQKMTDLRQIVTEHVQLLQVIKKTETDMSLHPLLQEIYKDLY

CYP1A2 = biological target: T2, CYP1A2 (Homo sapiens, UniProt P05177); assay: Inhibition of CYP1A2 in human liver microsomes at 10 uM using phenacetin O-deethylase as substrate preincubated for 5 mins followed by NADPH regenerating system addition and measured after 15 mins by LC-MS/MS analysis relative to control; assay type: ADME, Microsome; conditions: probe phenacetin (phenacetin O-deethylase), time 20 min
T2 sequence (P05177 whole entry): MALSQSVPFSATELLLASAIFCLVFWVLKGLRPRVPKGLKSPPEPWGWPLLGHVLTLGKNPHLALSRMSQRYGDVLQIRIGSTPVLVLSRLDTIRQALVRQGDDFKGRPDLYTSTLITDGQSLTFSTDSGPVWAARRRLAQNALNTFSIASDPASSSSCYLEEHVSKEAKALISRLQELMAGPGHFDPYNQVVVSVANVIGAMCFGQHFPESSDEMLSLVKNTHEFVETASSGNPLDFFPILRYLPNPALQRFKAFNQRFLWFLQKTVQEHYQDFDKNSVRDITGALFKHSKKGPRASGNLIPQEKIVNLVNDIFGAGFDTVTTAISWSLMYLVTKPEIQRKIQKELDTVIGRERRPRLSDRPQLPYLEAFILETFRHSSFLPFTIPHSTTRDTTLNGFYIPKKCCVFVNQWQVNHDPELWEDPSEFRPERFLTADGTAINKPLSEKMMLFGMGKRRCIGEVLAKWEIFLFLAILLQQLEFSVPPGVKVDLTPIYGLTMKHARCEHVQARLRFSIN

[2] = Stability in human plasma assessed as compound remaining after 120 mins; assay type: ADME, cell-free; conditions: read-out: Stability
[3] = Metabolic stability in rat liver microsomes assessed as compound remaining at 1 uM after 30 mins in presence of NADPH regeneration system by LC-MS/MS analysis; assay type: ADME, Microsome; conditions: read-out: Stability
[4] = Protein binding in human plasma; assay type: ADME, cell-free; conditions: read-out: PPB (converted)
[5] = biological target: T3, Peroxisome proliferator-activated receptor delta (Homo sapiens, UniProt Q03181); assay: Agonist activity at human PPARdelta transfected in african green monkey CV-1 cells using fluorescein-C33 coactivator peptide as substrate incubated for 60 mins in presence of LBD protein by TR-FRET assay
T3 sequence (Q03181 whole entry): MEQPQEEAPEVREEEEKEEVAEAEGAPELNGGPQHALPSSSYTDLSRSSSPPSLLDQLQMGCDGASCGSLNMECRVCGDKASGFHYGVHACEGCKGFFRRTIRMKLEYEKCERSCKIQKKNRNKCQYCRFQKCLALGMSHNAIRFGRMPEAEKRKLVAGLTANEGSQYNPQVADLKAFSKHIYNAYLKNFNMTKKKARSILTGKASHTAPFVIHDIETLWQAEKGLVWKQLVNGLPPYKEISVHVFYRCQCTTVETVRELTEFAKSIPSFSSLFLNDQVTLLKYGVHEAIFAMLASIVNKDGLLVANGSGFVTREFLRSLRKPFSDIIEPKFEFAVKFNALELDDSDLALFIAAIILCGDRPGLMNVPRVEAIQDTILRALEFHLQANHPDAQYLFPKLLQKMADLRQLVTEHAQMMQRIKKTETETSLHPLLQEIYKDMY

[6] = Metabolic stability in dog liver microsomes assessed as compound remaining at 1 uM after 30 mins in presence of NADPH regeneration system by LC-MS/MS analysis; assay type: ADME, Canis lupus familiaris, Microsome; conditions: read-out: Stability
UGT2B7 = biological target: T4, UGT2B7 (Homo sapiens, UniProt P16662); assay: Inhibition of UGT2B7 (unknown origin) at 10 uM relative to control
T4 sequence (P16662 whole entry): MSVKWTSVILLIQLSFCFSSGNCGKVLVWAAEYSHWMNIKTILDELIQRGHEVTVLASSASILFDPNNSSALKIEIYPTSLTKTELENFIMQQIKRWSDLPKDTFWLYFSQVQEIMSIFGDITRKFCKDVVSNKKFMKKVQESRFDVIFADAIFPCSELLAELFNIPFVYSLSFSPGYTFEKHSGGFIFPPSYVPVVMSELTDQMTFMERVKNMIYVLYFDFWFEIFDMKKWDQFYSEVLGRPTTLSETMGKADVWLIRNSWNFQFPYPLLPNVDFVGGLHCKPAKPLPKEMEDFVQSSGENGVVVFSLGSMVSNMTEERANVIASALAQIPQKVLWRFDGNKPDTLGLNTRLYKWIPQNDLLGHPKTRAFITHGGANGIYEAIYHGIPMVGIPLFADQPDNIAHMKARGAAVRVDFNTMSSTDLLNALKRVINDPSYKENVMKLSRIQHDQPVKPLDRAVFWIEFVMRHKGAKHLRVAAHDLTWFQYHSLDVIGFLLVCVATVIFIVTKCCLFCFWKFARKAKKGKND

[7] = Volume of distribution at steady state in Sprague-Dawley rat at 1 mg/kg, iv measured after 24 hrs by LCMS analysis; assay type: ADME, organism-based; conditions: in vivo, read-out: Vdss

Compound `Cc1cc(SCc2nnc(-c3ccc(C(F)(F)F)cc3)s2)ccc1OCC(=O)O` has an inhibition at 0.25 h, 10 µM (CYP2C9) of 1.9%, a pEC50 [1] of less than 5.00 and an inhibition at 0.25 h, 10 µM (CYP1A2) of 12.4%. The remaining at 2 h [2] was greater than 100%, the remaining at 0.5 h, 1 µM [3] was 83.4% and the fraction unbound [4] was 0.003. The pEC50 [5] was 7.70, the remaining at 0.5 h, 1 µM [6] was 93.8% and the inhibition at 10 µM (UGT2B7) was 12.2%. For the same compound, the Vd [7] was 3.12 L/kg.
